In ChEMBL document CHEMBL1201862, “PubChem BioAssay data set” (2004):
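Five concentrations, 48 hours, 96-well plates. The concentration for 50% growth inhibition is given as GI50.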 The source made the active and inactive calls. No stated cut-off is given here; in the data, active = GI50 up to about 1.1 µM and inactive = higher.

Legend:
Assay in all cases: NCI tumour cell line growth inhibition, 48 h
786-0 = system: 786-0
DU-145 = system: DU-145
HCC 2998 = system: HCC 2998
HCT-116 = system: HCT-116
HOP-62 = system: HOP-62
Hs-578T = system: Hs-578T
K562 = system: K562
LOX IMVI = system: LOX IMVI
M14 = system: M14
OVCAR-4 = system: OVCAR-4
OVCAR-8 = system: OVCAR-8
RPMI-8226 = system: RPMI-8226
RXF 393 = system: RXF 393
U-251 = system: U-251
UACC-257 = system: UACC-257
UACC-62 = system: UACC-62
IGROV-1 = system: IGROV-1
NCI-H522 = system: NCI-H522
SR = system: SR

Measured: GI50

CCc1nc2ccc(C(F)(F)F)cc2[nH]c1=O
inactive: 786-0 > 100 µM | DU-145 > 100 µM | HCC 2998 > 100 µM | HCT-116 > 100 µM | HOP-62 > 100 µM | Hs-578T > 100 µM | K562 > 100 µM | LOX IMVI > 100 µM | M14 > 100 µM | OVCAR-4 52.2 µM | OVCAR-8 > 100 µM | RPMI-8226 > 100 µM | RXF 393 > 100 µM | U-251 > 100 µM | UACC-257 > 100 µM | UACC-62 > 100 µM

NC(=O)C12CC3CC(CC(Br)(C3)C1)C2
inactive: 786-0 > 100 µM | HCC 2998 > 100 µM | HCT-116 > 100 µM | HOP-62 > 100 µM | IGROV-1 > 100 µM | LOX IMVI > 100 µM | M14 > 100 µM | NCI-H522 > 100 µM | OVCAR-4 > 100 µM | OVCAR-8 > 100 µM | RPMI-8226 > 100 µM | SR > 100 µM | U-251 > 100 µM | UACC-257 > 100 µM | UACC-62 > 100 µM

O=[N+]([O-])/C(C(Cl)=C(Cl)Cl)=C(\Nc1cccc2cccnc12)Sc1ccccc1
inactive: 786-0 20 µM | DU-145 22.9 µM | HCC 2998 78.2 µM | HCT-116 19.4 µM | HOP-62 23.4 µM | Hs-578T 13.4 µM | K562 28.4 µM | M14 39.3 µM | OVCAR-4 23.1 µM | RPMI-8226 31.5 µM | U-251 16.2 µM | UACC-257 19.8 µM | UACC-62 11.1 µM

CC(C#N)Nc1ccc(Oc2ccc(C(C)(C)c3ccc(Oc4ccc(NC(C)C#N)cc4)cc3)cc2)cc1 (stereo not given)
inactive: 786-0 > 100 µM | HCC 2998 22.3 µM | HCT-116 30.7 µM | Hs-578T 18 µM | IGROV-1 > 100 µM | K562 > 100 µM | LOX IMVI > 100 µM | M14 > 100 µM | OVCAR-4 > 100 µM | OVCAR-8 > 100 µM | RXF 393 > 100 µM | U-251 > 100 µM | UACC-257 8.85 µM | UACC-62 > 100 µM

CN(C)N1C(=O)c2ccccc2NC1c1ccccc1 (stereo not given)
inactive: 786-0 > 100 µM | DU-145 > 100 µM | HCC 2998 > 100 µM | HCT-116 > 100 µM | HOP-62 > 100 µM | Hs-578T > 100 µM | IGROV-1 > 100 µM | LOX IMVI > 100 µM | M14 > 100 µM | NCI-H522 > 100 µM | OVCAR-4 > 100 µM | OVCAR-8 > 100 µM | RPMI-8226 > 100 µM | U-251 > 100 µM | UACC-257 > 100 µM | UACC-62 > 100 µM

CC(=O)N(C(C)=O)n1c(-c2ccccc2)n[nH]c1=O
inactive: 786-0 > 100 µM | DU-145 > 100 µM | HCC 2998 > 100 µM | HCT-116 > 100 µM | HOP-62 > 100 µM | IGROV-1 > 100 µM | K562 > 100 µM | LOX IMVI > 100 µM | M14 > 100 µM | NCI-H522 > 100 µM | OVCAR-4 > 100 µM | OVCAR-8 > 100 µM | RPMI-8226 > 100 µM | RXF 393 > 100 µM | SR > 100 µM | U-251 > 100 µM | UACC-257 > 100 µM | UACC-62 > 100 µM

CSc1nc2ccccc2c(=O)n1/N=C1\C(=O)N(CN2CCOCC2)c2ccc(Cl)cc21
inactive: 786-0 34.8 µM | DU-145 18.5 µM | HCT-116 22.4 µM | HOP-62 34.3 µM | Hs-578T 44.2 µM | IGROV-1 16.8 µM | K562 5.77 µM | LOX IMVI 15.2 µM | M14 26.5 µM | NCI-H522 31.1 µM | OVCAR-4 33.8 µM | OVCAR-8 39.6 µM | RXF 393 18.1 µM | U-251 32.5 µM | UACC-257 19.8 µM | UACC-62 6.68 µM

Nc1ncnc2c1ncn2CC(OCP(=O)(O)O)Oc1ccccc1 (stereo not given)
inactive: 786-0 > 100 µM | DU-145 > 100 µM | HCC 2998 > 100 µM | HCT-116 > 100 µM | HOP-62 > 100 µM | Hs-578T > 100 µM | K562 > 100 µM | LOX IMVI > 100 µM | M14 > 100 µM | OVCAR-4 > 100 µM | RPMI-8226 > 100 µM | RXF 393 > 100 µM | U-251 > 100 µM | UACC-257 > 100 µM | UACC-62 > 100 µM

CNC(=O)N(CCC#N)CCN(CCN(C(=O)NC)c1ccccc1)C(=O)NC
inactive: 786-0 > 100 µM | DU-145 > 100 µM | HCC 2998 > 100 µM | HCT-116 > 100 µM | HOP-62 > 100 µM | IGROV-1 > 100 µM | K562 > 100 µM | LOX IMVI > 100 µM | M14 > 100 µM | NCI-H522 > 100 µM | OVCAR-4 > 100 µM | OVCAR-8 > 100 µM | RPMI-8226 > 100 µM | RXF 393 > 100 µM | SR > 100 µM | U-251 > 100 µM | UACC-257 > 100 µM | UACC-62 > 100 µM

CN(C)/N=N/c1nc2c(c(=O)n(C)c(=O)n2C)n1CC1CO1 (stereo not given)
inactive: 786-0 16.6 µM | DU-145 14.4 µM | HCC 2998 12.7 µM | HCT-116 11.7 µM | HOP-62 12.1 µM | IGROV-1 11.7 µM | K562 19.2 µM | LOX IMVI 8.43 µM | M14 15.8 µM | NCI-H522 14.1 µM | OVCAR-4 15.7 µM | OVCAR-8 14.5 µM | RPMI-8226 23.8 µM | RXF 393 2.88 µM | U-251 12.5 µM | UACC-257 16.6 µM | UACC-62 12.4 µM

COC(=O)C1(CCCCl)CCCN1C(=O)OC(C)(C)C (stereo not given)
inactive: 786-0 > 100 µM | DU-145 > 100 µM | HCC 2998 > 100 µM | HCT-116 > 100 µM | HOP-62 > 100 µM | IGROV-1 > 100 µM | K562 36.7 µM | LOX IMVI > 100 µM | OVCAR-4 > 100 µM | RXF 393 > 100 µM | SR 10.5 µM | U-251 > 100 µM | UACC-257 > 100 µM | UACC-62 > 100 µM

COc1ccc(/C=C2\CCCCCC2=O)cc1
inactive: 786-0 > 100 µM | DU-145 > 100 µM | HCC 2998 > 100 µM | HCT-116 > 100 µM | HOP-62 > 100 µM | IGROV-1 > 100 µM | K562 > 100 µM | LOX IMVI > 100 µM | M14 > 100 µM | NCI-H522 > 100 µM | OVCAR-4 > 100 µM | OVCAR-8 > 100 µM | RPMI-8226 > 100 µM | RXF 393 > 100 µM | SR > 100 µM | U-251 > 100 µM | UACC-257 > 100 µM | UACC-62 > 100 µM
